Tests used:
Chinese sprangletop = assay: Test Example 3: herbicidal effect by foliage application, Wagner pot (Table 18, symbol D); format: in vivo, chinese sprangletop (Leptochloa chinensis)
Procedure: (§1) [Test Example 3] Herbicidal Effect Test by Foliage Application After alluvial soil was placed into 1/10000 are of Wagner pot, water was poured and mixed to form a submerged condition having a water depth of 0.1 cm to 0.5 cm. Seeds of barnyard grass, Chinese sprangletop, rice flat sedge, and rice were sowed and the pot was placed in a greenhouse at 25° C. to 30° C. for growth of the plants. After 14-day growth of the plants, the emulsion agent of the compound of the present invention prepared according to Formulation Example 2 was diluted with water so as to achieve a predetermined herbicide amount, and the diluted emulsion agent was uniformly applied to a foliage part with a small-sized spray. Three weeks after the herbicide application, the effect of the herbicide on each plant was evaluated according to the criteria of Test Example 1.

rice flat sedge = assay: Test Example 3: herbicidal effect by foliage application, Wagner pot (Table 18, symbol E); format: in vivo, rice flat sedge (Cyperus iria)
Procedure: as §1

barnyard grass [1] = assay: Test Example 3: herbicidal effect by foliage application, Wagner pot (Table 18, symbol H); format: in vivo, barnyard grass (Echinochloa crus-galli)
Procedure: as §1

lambsquarters = assay: Test Example 5: herbicidal effect by foliage application, plastic box (Table 20, symbol O); format: in vivo, lambsquarters (Chenopodium album); conditions: foliage application, 320 g/ha, three weeks after application
From the text: (§2) [Test Example 5] Herbicidal Effect Test by Foliage Application
(§3) Sterilized diluvial soil was placed in a plastic box having a length of 21 cm, a width of 13 cm, and a depth of 7 cm. The seeds of each of southern crabgrass, green foxtail, barnyard grass, wild oat, blackgrass, Italian ryegrass, windgrass, velvetleaf, redroot pigweed, lambsquarters, chickweed, false cleavers, persian speedwell, corn, soybean, rice, wheat, beet, and rapeseed were sowed in a spot-like manner and covered with the soil having a thickness of about 1.5 cm. Thereafter, the plants were grown in a greenhouse at 25° C. to 30° C. After 14-day growth of the plants, the emulsion agent of the compound of the present invention prepared according to Formulation Example 2 was diluted with water so as to achieve a predetermined herbicide amount, and the diluted emulsion agent was uniformly applied to a foliage part with a small-sized spray. Three weeks after the herbicide application, the effect of the herbicide on each plant was evaluated according to the criteria of Test Example 1.

green foxtail = assay: Test Example 5: herbicidal effect by foliage application, plastic box (Table 20, symbol G); format: in vivo, green foxtail (Setaria viridis); conditions: foliage application, 320 g/ha, three weeks after application
From the text: as §2, §3

wild oat = assay: Test Example 5: herbicidal effect by foliage application, plastic box (Table 20, symbol I); format: in vivo, wild oat (Avena fatua); conditions: foliage application, 320 g/ha, three weeks after application
From the text: as §2, §3

blackgrass = assay: Test Example 5: herbicidal effect by foliage application, plastic box (Table 20, symbol J); format: in vivo, blackgrass (Alopecurus myosuroides); conditions: foliage application, 320 g/ha, three weeks after application
From the text: as §2, §3

windgrass = assay: Test Example 5: herbicidal effect by foliage application, plastic box (Table 20, symbol L); format: in vivo, windgrass (Apera spica-venti); conditions: foliage application, 320 g/ha, three weeks after application
From the text: as §2, §3

barnyard grass [2] = assay: Test Example 5: herbicidal effect by foliage application, plastic box (Table 20, symbol H); format: in vivo, barnyard grass (Echinochloa crus-galli); conditions: foliage application, 320 g/ha, three weeks after application
From the text: as §2, §3

persian speedwell = assay: Test Example 5: herbicidal effect by foliage application, plastic box (Table 20, symbol R); format: in vivo, Persian speedwell (Veronica persica); conditions: foliage application, 320 g/ha, three weeks after application
From the text: as §2, §3

velvetleaf = assay: Test Example 5: herbicidal effect by foliage application, plastic box (Table 20, symbol M); format: in vivo, velvetleaf (Abutilon theophrasti); conditions: foliage application, 320 g/ha, three weeks after application
From the text: as §2, §3

Italian ryegrass = assay: Test Example 5: herbicidal effect by foliage application, plastic box (Table 20, symbol K); format: in vivo, Italian ryegrass (Lolium multiflorum); conditions: foliage application, 320 g/ha, three weeks after application
From the text: as §2, §3

southern crabgrass = assay: Test Example 5: herbicidal effect by foliage application, plastic box (Table 20, symbol F); format: in vivo, southern crabgrass (Digitaria ciliaris); conditions: foliage application, 320 g/ha, three weeks after application
From the text: as §2, §3

[3] = amount of applied herbicide 320 g/ha
[4] = amount of applied herbicide 101 g/ha
[5] = amount of applied herbicide 125 g/ha

CCCC(=O)Oc1c(C)nn(C)c(=O)c1-c1c(-c2ccc(OC)nc2OC)sc2ccccc12 [1-080]
herbicidal effect on D (Chinese sprangletop), rating 0-5 (Chinese sprangletop; 320 g/ha): 0 (Herbicidal rate of 5% or less (almost no effect))
herbicidal effect on E (rice flat sedge), rating 0-5 (rice flat sedge; 320 g/ha): 4 (Herbicidal rate of 70% or more and less than 90%)
herbicidal effect on H (barnyard grass), rating 0-5 (barnyard grass [1]; 320 g/ha): 0 (Herbicidal rate of 5% or less (almost no effect))

COc1nn(C)c(=O)c(-c2c(-c3ccc(Oc4ccccc4)cc3)sc3ccccc23)c1O [1-164]
herbicidal effect on D (Chinese sprangletop), rating 0-5 (Chinese sprangletop; 80 g/ha): 4 (Herbicidal rate of 70% or more and less than 90%)
herbicidal effect on E (rice flat sedge), rating 0-5 (rice flat sedge; 80 g/ha): 4 (Herbicidal rate of 70% or more and less than 90%)
herbicidal effect on H (barnyard grass), rating 0-5 (barnyard grass [1]; 80 g/ha): 4 (Herbicidal rate of 70% or more and less than 90%)

CCCC(=O)Oc1c(OC)nn(C)c(=O)c1-c1c(-c2ccoc2)sc2ccccc12 [1-191]
herbicidal effect on D (Chinese sprangletop), rating 0-5 (Chinese sprangletop; 80 g/ha): 5 (Herbicidal rate of 90% or more (almost completely withered))
herbicidal effect on E (rice flat sedge), rating 0-5 (rice flat sedge; 80 g/ha): 4 (Herbicidal rate of 70% or more and less than 90%)
herbicidal effect on H (barnyard grass), rating 0-5 (barnyard grass [1]; 80 g/ha): 2 (Herbicidal rate of 20% or more and less than 40%)

Cc1ccc2sc(-c3ccc4ccccc4c3)c(-c3c(O)c(C)nn(C)c3=O)c2c1 [2-154]
herbicidal effect on D: Chinese sprangletop (Chinese sprangletop; [3]): 0 (Herbicidal rate of 5% or less (almost no effect))
herbicidal effect on E: rice flat sedge (rice flat sedge; [3]): 3 (Herbicidal rate of 40% or more and less than 70%)
herbicidal effect on H: barnyard grass (barnyard grass [1]; [3]): 3 (Herbicidal rate of 40% or more and less than 70%)

CCCC(=O)Oc1c(C)nn(C)c(=O)c1-c1c(-c2cc(C(F)(F)F)cc(C(F)(F)F)c2)sc2ccc(F)cc12 [2-359]
herbicidal effect on D: Chinese sprangletop (Chinese sprangletop; [3]): 5 (Herbicidal rate of 90% or more (almost completely withered))
herbicidal effect on E: rice flat sedge (rice flat sedge; [3]): 3 (Herbicidal rate of 40% or more and less than 70%)
herbicidal effect on H: barnyard grass (barnyard grass [1]; [3]): 3 (Herbicidal rate of 40% or more and less than 70%)

COc1cc(F)ccc1-c1sc2ccc(S(C)(=O)=O)cc2c1-c1c(O)c(C)nn(C)c1=O [2-377]
herbicidal effect on D: Chinese sprangletop (Chinese sprangletop; [4]): 3 (Herbicidal rate of 40% or more and less than 70%)
herbicidal effect on E: rice flat sedge (rice flat sedge; [4]): 3 (Herbicidal rate of 40% or more and less than 70%)
herbicidal effect on H: barnyard grass (barnyard grass [1]; [4]): 4 (Herbicidal rate of 70% or more and less than 90%)

CCn1nc(C)c(O)c(-c2c(-c3ccc(Cl)cc3)sc3ccc(F)cc23)c1=O [2-400]
herbicidal effect on D: Chinese sprangletop (Chinese sprangletop; [3]): 5 (Herbicidal rate of 90% or more (almost completely withered))
herbicidal effect on E: rice flat sedge (rice flat sedge; [3]): 5 (Herbicidal rate of 90% or more (almost completely withered))

Cc1n[nH]c(=O)c(-c2c(-c3ccc(F)cc3)sc3ccc(F)cc23)c1O [2-428]
herbicidal effect on D: Chinese sprangletop (Chinese sprangletop; [5]): 0 (Herbicidal rate of 5% or less (almost no effect))
herbicidal effect on E: rice flat sedge (rice flat sedge; [5]): 0 (Herbicidal rate of 5% or less (almost no effect))
herbicidal effect on H: barnyard grass (barnyard grass [1]; [5]): 4 (Herbicidal rate of 70% or more and less than 90%)

Cc1nn(Cc2ccccc2)c(=O)c(-c2c(-c3ccc(Cl)cc3)sc3ccc(F)cc23)c1O [2-434]
herbicidal effect on E: rice flat sedge (rice flat sedge; [3]): 2 (Herbicidal rate of 20% or more and less than 40%)
herbicidal effect on H: barnyard grass (barnyard grass [1]; [3]): 2 (Herbicidal rate of 20% or more and less than 40%)

Cc1nn(C)c(=O)c(-c2c(-c3ccc(OC(F)F)cc3)sc3c(C)cccc23)c1O [4-128]
herbicidal effect on Chinese sprangletop (D) (Chinese sprangletop; 320 g/ha): 0 (Herbicidal rate of 5% or less (almost no effect))
herbicidal effect on rice flat sedge (E) (rice flat sedge; 320 g/ha): 5 (Herbicidal rate of 90% or more (almost completely withered))
herbicidal effect on barnyard grass (H) (barnyard grass [1]; 320 g/ha): 3 (Herbicidal rate of 40% or more and less than 70%)

Cc1nn(C)c(=O)c(-c2c(-c3ccc(C(=O)O)cc3)sc3cc(F)c(F)cc23)c1O [5-027]
herbicidal effect on Chinese sprangletop (D) (Chinese sprangletop; 320 g/ha): 0 (Herbicidal rate of 5% or less (almost no effect))
herbicidal effect on rice flat sedge (E) (rice flat sedge; 320 g/ha): 0 (Herbicidal rate of 5% or less (almost no effect))
herbicidal effect on barnyard grass (H) (barnyard grass [1]; 320 g/ha): 3 (Herbicidal rate of 40% or more and less than 70%)

CCCC(=O)Oc1c(C)nn(C)c(=O)c1-c1c(-c2ccc(OC)c(OC)c2)sc2cc(OC)c(OC)cc12 [5-063]
herbicidal effect on lambsquarters (O) (lambsquarters): 0 (Herbicidal rate of 5% or less (almost no effect))
herbicidal effect on green foxtail (G) (green foxtail): 0 (Herbicidal rate of 5% or less (almost no effect))
herbicidal effect on Chinese sprangletop (D) (Chinese sprangletop; 320 g/ha): 0 (Herbicidal rate of 5% or less (almost no effect))
herbicidal effect on wild oat (I) (wild oat): 0 (Herbicidal rate of 5% or less (almost no effect))
herbicidal effect on rice flat sedge (E) (rice flat sedge; 320 g/ha): 2 (Herbicidal rate of 20% or more and less than 40%)
herbicidal effect on blackgrass (J) (blackgrass): 0 (Herbicidal rate of 5% or less (almost no effect))
herbicidal effect on barnyard grass (H) (barnyard grass [1]; 320 g/ha): 3 (Herbicidal rate of 40% or more and less than 70%)
herbicidal effect on windgrass (L) (windgrass): 0 (Herbicidal rate of 5% or less (almost no effect))
herbicidal effect on barnyard grass (H) (barnyard grass [2]): 0 (Herbicidal rate of 5% or less (almost no effect))
herbicidal effect on persian speedwell (R) (persian speedwell): 0 (Herbicidal rate of 5% or less (almost no effect))
herbicidal effect on velvetleaf (M) (velvetleaf): 0 (Herbicidal rate of 5% or less (almost no effect))
herbicidal effect on Italian ryegrass (K) (Italian ryegrass): 1 (Herbicidal rate of 5% or more and less than 20%)
herbicidal effect on southern crabgrass (F) (southern crabgrass): 0 (Herbicidal rate of 5% or less (almost no effect))

CCOc1cc(F)ccc1-c1cc2c(-c3c(O)c(C)nn(C)c3=O)c(-c3ccc(F)cc3OCC)sc2cc1OC [5-081]
herbicidal effect on Chinese sprangletop (D) (Chinese sprangletop; 320 g/ha): 2 (Herbicidal rate of 20% or more and less than 40%)
herbicidal effect on rice flat sedge (E) (rice flat sedge; 320 g/ha): 0 (Herbicidal rate of 5% or less (almost no effect))
herbicidal effect on barnyard grass (H) (barnyard grass [1]; 320 g/ha): 2 (Herbicidal rate of 20% or more and less than 40%)

Cc1cc2sc(-c3ccc(C(F)(F)F)cc3)c(-c3c(O)c(C)nn(C)c3=O)c2cc1C [5-096]
herbicidal effect on Chinese sprangletop (D) (Chinese sprangletop; 320 g/ha): 2 (Herbicidal rate of 20% or more and less than 40%)
herbicidal effect on rice flat sedge (E) (rice flat sedge; 320 g/ha): 2 (Herbicidal rate of 20% or more and less than 40%)
herbicidal effect on barnyard grass (H) (barnyard grass [1]; 320 g/ha): 3 (Herbicidal rate of 40% or more and less than 70%)

Cc1cc2sc(-c3ccc(C#N)cc3)c(-c3c(O)c(C)nn(C)c3=O)c2cc1C [5-100]
herbicidal effect on lambsquarters (O) (lambsquarters): 0 (Herbicidal rate of 5% or less (almost no effect))
herbicidal effect on green foxtail (G) (green foxtail): 0 (Herbicidal rate of 5% or less (almost no effect))
herbicidal effect on wild oat (I) (wild oat): 0 (Herbicidal rate of 5% or less (almost no effect))
herbicidal effect on blackgrass (J) (blackgrass): 0 (Herbicidal rate of 5% or less (almost no effect))
herbicidal effect on windgrass (L) (windgrass): 0 (Herbicidal rate of 5% or less (almost no effect))
herbicidal effect on barnyard grass (H) (barnyard grass [2]): 0 (Herbicidal rate of 5% or less (almost no effect))
herbicidal effect on persian speedwell (R) (persian speedwell): 2 (Herbicidal rate of 20% or more and less than 40%)
herbicidal effect on velvetleaf (M) (velvetleaf): 0 (Herbicidal rate of 5% or less (almost no effect))
herbicidal effect on Italian ryegrass (K) (Italian ryegrass): 0 (Herbicidal rate of 5% or less (almost no effect))
herbicidal effect on southern crabgrass (F) (southern crabgrass): 0 (Herbicidal rate of 5% or less (almost no effect))

Cc1ccc(-c2oc3ccc(F)cc3c2-c2c(O)c(C)nn(C)c2=O)cc1 [9-017]
Herbicidal effect on D (Chinese sprangletop), foliage application (Chinese sprangletop; [3]): 3 (Herbicidal rate of 40% or more and less than 70%)
Herbicidal effect on E (rice flat sedge), foliage application (rice flat sedge; [3]): 5 (Herbicidal rate of 90% or more (almost completely withered))
Herbicidal effect on H (barnyard grass), foliage application (barnyard grass [1]; [3]): 5 (Herbicidal rate of 90% or more (almost completely withered))

Cc1nn(C)c(=O)c(-c2c(-c3ccc(C(F)(F)F)cc3)oc3ccc(F)cc23)c1O [9-029]
Herbicidal effect on D (Chinese sprangletop), foliage application (Chinese sprangletop; [3]): 3 (Herbicidal rate of 40% or more and less than 70%)
Herbicidal effect on E (rice flat sedge), foliage application (rice flat sedge; [3]): 5 (Herbicidal rate of 90% or more (almost completely withered))
Herbicidal effect on H (barnyard grass), foliage application (barnyard grass [1]; [3]): 4 (Herbicidal rate of 70% or more and less than 90%)
